# Test results taken from article PMC5632533, “Mechanisms of action and in vivo antibacterial efficacy assessment of five novel hybrid peptides derived from Indolicidin and Ranalexin against Streptococcus pneumoniae” (PeerJ, 2017).
# Tested on: ICR (CD-1) mice
# Assay: In vivo toxicity in mice (SC, IN, IP routes)
# Parameters: Aspartate aminotransferase, AST / Alanine transaminase, ALT / Alkaline phosphatase, ALP / Creatinine / Urea / Total bilirubin: unit not given here
# Settings: for Eosinophil / Erythrocytes, RBC / Granulocytes / Hematocrit, HCT / Hemoglobin Hgb / Lymphocytes / Mean corpuscular haemoglobin concentration, MCHC / Mean corpuscular haemoglobin, MCH / Monocytes / White blood cells, WBC / platelet Counts, PLT / Mean corpuscular volume, MCV / Alanine transaminase, ALT / Alkaline phosphatase, ALP / Aspartate aminotransferase, AST / Creatinine / Total bilirubin / Urea: 3 doses (1hr, 12hr, 24hr), RN7-IN9, RN7-IN6 10 mg/kg, day 7, mean±SD, 4 mice; for maximum IP dose at which no signs of stress or abnormal behavior were evident (non-toxic dose): doses at 1 h, 12 h, 24 h, no death up to seven days; for Alanine transaminase, ALT / Alkaline phosphatase, ALP / Aspartate aminotransferase, AST / Creatinine / Total bilirubin / Urea: serum
# Description: In this study, 4-week old male, pathogen free ICR (CD-1) mice were purchased from InVivos (Lim Chu Kang, Singapore) and used to assess the in vivo toxicity and antibacterial efficacy of the novel peptides, as these animals are by far the most commonly used model for the study of pneumococcal disease ([Chiavolini, Pozzi & Ricci, 2008]). The mice were kept in ventilated polycarbonate cages (12 h light/dark cycle, 20 ± 2 °C and 55% relative humidity). All mice were familiarized for seven days before any experimental procedure and were given unlimited pellets and water ad libitum. All animal experimentations were conducted according to the guidelines approved by Faculty of Medicine Institutional Animal Care and Use Committee (FOM IACUC), University of Malaya (ethics Reference no. : 2013-07-15/MMBTR/SDS).
# In order to evaluate the possible toxic effects correlated to peptides administered in mice, four hybrid peptides RN7-IN10, RN7-IN9, RN7-IN8 and RN7-IN6 were chosen for in vivo toxicity assessment, due to their promising in vitro antibacterial activity ([Jindal et al., 2015]). Mice were separated into four groups (each with four mice) and were injected with respective peptides at 1 h, 12 h, and 24 h (three-dose regimen) via IP, SC, and IN administration routes. The hybrid peptides were first administered at high doses (100 mg/kg for IP route, 100 mg/kg for SC routes and 20 mg/kg for IN route). Any abnormal behavior was recorded and survival of mice was noted as well. In case adverse effects such as high physical stress, severe lethargy, physical inactiveness, and/or death were detected, lower graded doses were given. All the administered mice were monitored for seven days or until death occurred. At day seven post administration, all animals were sacrificed and blood and organs were collected. Untreated mice were used as a control group.
# Mice used to evaluate the in vivo toxicity and antibacterial activity of the hybrid peptides using the subcutaneous (SC) and intranasal (IN) administration routes, were anesthetized using a combination of a standard dose of xylazine (ilium xylazil-20, 10 mg/kg) and ketamine (Narketan®-10, 100 mg/kg) through intraperitoneal (IP) injection. After seven days of treatment, the in vivo toxicity and antibacterial efficacy experiments were ended and the surviving mice were anesthetized. Blood samples for Hematological and biochemical analysis were collected via cardiac puncture using a 25G syringe (BD bioscience, San Jose, CA, USA). Whole blood for heamatological analysis was collected in 500 µl dipotassium EDTA microtainer tubes (BD Bioscience, USA). About 500 µl of blood collected an eppedorff tube and centrifuged at 8000 rpm for 5 min and then the serum was transferred into a new 1.5 ml tube for biochemistry analysis. The mice were then euthanized by cervical dislocation, dissected and the following organs were collected for histopathology evaluation: lung, kidney, brain, liver and spleen.
# For whole blood analysis, the parameters were number of red cells (RBC), number of white cells (WBC), lymphocytes, monocytes, eosinophil, granulocytes, haemoglobin (Hgb), mean corpuscular volume (MCV), hematocrit (HCT), platelet Counts (PLT), Mean corpuscular haemoglobin (MCH) and corpuscular haemoglobin concentration (MCHC). For biochemistry analysis, the parameters were alanine transaminase (ALT), creatinine, alkaline phosphatase (ALP), aspartate aminotransferase (AST), total bilirubin and urea.
# The following organs were collected from all the dissected mice: lung, kidney, brain, spleen, and liver. All tissues were fixed in 10% (v/v) buffered formalin and processed for paraffin embedding. Hematoxylin–eosin (HE) was used to stain the histological sections at the histopathology laboratory, Veterinary Laboratory Service Unit, University Putra Malaysia (UPM).
# [1] = IN, head doses: RN7-IN10, RN7-IN8 20 mg/kg
# [2] = SC, head doses: RN7-IN10, RN7-IN8 20 mg/kg
substance,measurement,setting,value
"FLGGLIKKWPWWPWRR-NH2 [RN7-IN9, hybrid peptide of ranalexin (residues 1-7) and indolicidin (residues 5-13)]",Eosinophil,[1],3.2±1.2%
same,"Erythrocytes, RBC",[1],9.36±0.9 10^6/mm^3
same,Granulocytes,[1],56.2±10.81%
same,"Hematocrit, HCT",[1],46.82±4.23%
same,Hemoglobin Hgb,[1],14.9 ± 1.32 g/dL
same,Lymphocytes,[1],41.27±10.56%
same,"Mean corpuscular haemoglobin concentration, MCHC",[1],31.85 ± 0.17 g/dL
same,"Mean corpuscular haemoglobin, MCH",[1],15.95 ± 0.33 pg
same,Monocytes,[1],2.52±0.27%
same,"White blood cells, WBC",[1],5.2±2.35 10^3/mm^3
same,"platelet Counts, PLT",[1],656.75±76.9 10^3/mm^3
same,Eosinophil,"IP, RN7-IN10, RN7-IN8 20 mg/kg",3.95±2.56%
same,"Erythrocytes, RBC","IP, RN7-IN10, RN7-IN8 20 mg/kg",8.06±1.04 10^6/mm^3
same,Granulocytes,"IP, RN7-IN10, RN7-IN8 20 mg/kg",53.02±4.07%
same,"Hematocrit, HCT","IP, RN7-IN10, RN7-IN8 20 mg/kg",41.42±5.25%
same,Hemoglobin Hgb,"IP, RN7-IN10, RN7-IN8 20 mg/kg",13.9 ± 1.67 g/dL
same,"Mean corpuscular haemoglobin concentration, MCHC","IP, RN7-IN10, RN7-IN8 20 mg/kg",33.63 ± 0.34 g/dL
same,"Mean corpuscular haemoglobin, MCH","IP, RN7-IN10, RN7-IN8 20 mg/kg",17.25 ± 0.78 pg
same,"Mean corpuscular volume, MCV","IP, RN7-IN10, RN7-IN8 20 mg/kg",51.5±2.64 µm^3
same,Monocytes,"IP, RN7-IN10, RN7-IN8 20 mg/kg",2.47±0.25%
same,"White blood cells, WBC","IP, RN7-IN10, RN7-IN8 20 mg/kg",3.7±1.54 10^3/mm^3
same,"platelet Counts, PLT","IP, RN7-IN10, RN7-IN8 20 mg/kg",674±118.72 10^3/mm^3
same,maximum IP dose at which no signs of stress or abnormal behavior were evident (non-toxic dose),IP,10 mg/kg
same,Eosinophil,[2],2.77±0.54%
same,"Erythrocytes, RBC",[2],9.22±0.98 10^6/mm^3
same,Granulocytes,[2],55.55±4.52%
same,"Hematocrit, HCT",[2],46.15±5.19%
same,Hemoglobin Hgb,[2],15.75 ± 1.4 g/dL
same,Lymphocytes,[2],46.47±5.48%
same,"Mean corpuscular haemoglobin concentration, MCHC",[2],34.2 ± 1.37 g/dL
same,"Mean corpuscular haemoglobin, MCH",[2],17.1 ± 0.53 pg
same,"Mean corpuscular volume, MCV",[2],51±1.82 µm^3
same,Monocytes,[2],1.95±0.1%
same,"White blood cells, WBC",[2],4.32±0.55 10^3/mm^3
same,"platelet Counts, PLT",[2],449.75±100.23 10^3/mm^3
same,"Alanine transaminase, ALT",[1],41.22±15.75
same,"Alkaline phosphatase, ALP",[1],127.75±6.07
same,"Aspartate aminotransferase, AST",[1],141.2±23.08
same,Creatinine,[1],37.66±1.26
same,Total bilirubin,[1],2.01±0.27
same,Urea,[1],9.6±1.02
same,"Alanine transaminase, ALT","IP, RN7-IN10, RN7-IN8 20 mg/kg",51.54±5.83
same,"Aspartate aminotransferase, AST","IP, RN7-IN10, RN7-IN8 20 mg/kg",172.33±26.35
same,Creatinine,"IP, RN7-IN10, RN7-IN8 20 mg/kg",37.3±3.51
same,Total bilirubin,"IP, RN7-IN10, RN7-IN8 20 mg/kg",1.9±0.02
same,Urea,"IP, RN7-IN10, RN7-IN8 20 mg/kg",10.56±5.2
same,"Alanine transaminase, ALT",[2],43.17±13.81
same,"Alkaline phosphatase, ALP",[2],131.25±19.7
same,"Aspartate aminotransferase, AST",[2],188.33±11.22
same,Creatinine,[2],35±1.27
same,Total bilirubin,[2],2.2±0.13
same,Urea,[2],8.84±1.04
"FLGGLIKWWPWRR-NH2 [RN7-IN6, hybrid peptide of ranalexin (residues 1-7) and indolicidin (residues 8-13)]",Eosinophil,[1],3.5±0.9%
same,"Erythrocytes, RBC",[1],9.12±0.25 10^6/mm^3
same,"Hematocrit, HCT",[1],47.43±0.61%
same,Hemoglobin Hgb,[1],15 ± 0.28 g/dL
same,Lymphocytes,[1],47.67±12.2%
same,"Mean corpuscular haemoglobin concentration, MCHC",[1],31.7 ± 0.21 g/dL
same,"Mean corpuscular haemoglobin, MCH",[1],16.5 ± 0.17 pg
same,"Mean corpuscular volume, MCV",[1],52.66±1.24 µm^3
same,Monocytes,[1],2.7±0.57%
same,"White blood cells, WBC",[1],3.6±0.35 10^3/mm^3
same,"platelet Counts, PLT",[1],597.66±123.23 10^3/mm^3
same,Eosinophil,"IP, RN7-IN10, RN7-IN8 20 mg/kg",3.22±1.47%
same,"Erythrocytes, RBC","IP, RN7-IN10, RN7-IN8 20 mg/kg",8.71±0.44 10^6/mm^3
same,Granulocytes,"IP, RN7-IN10, RN7-IN8 20 mg/kg",57.87±11.66%
same,"Hematocrit, HCT","IP, RN7-IN10, RN7-IN8 20 mg/kg",44.97±1.75%
same,Hemoglobin Hgb,"IP, RN7-IN10, RN7-IN8 20 mg/kg",15.02 ± 0.59 g/dL
same,Lymphocytes,"IP, RN7-IN10, RN7-IN8 20 mg/kg",54.6±3.8%
same,"Mean corpuscular haemoglobin concentration, MCHC","IP, RN7-IN10, RN7-IN8 20 mg/kg",33.42 ± 0.62 g/dL
same,"Mean corpuscular haemoglobin, MCH","IP, RN7-IN10, RN7-IN8 20 mg/kg",16.67 ± 1.07 pg
same,"Mean corpuscular volume, MCV","IP, RN7-IN10, RN7-IN8 20 mg/kg",50.5±1.29 µm^3
same,Monocytes,"IP, RN7-IN10, RN7-IN8 20 mg/kg",2.53±0.33%
same,"White blood cells, WBC","IP, RN7-IN10, RN7-IN8 20 mg/kg",4.1±0.72 10^3/mm^3
same,"platelet Counts, PLT","IP, RN7-IN10, RN7-IN8 20 mg/kg",540.75±107.41 10^3/mm^3
same,maximum IP dose at which no signs of stress or abnormal behavior were evident (non-toxic dose),IP,10 mg/kg
same,Eosinophil,[2],2.7±0.71%
same,"Erythrocytes, RBC",[2],9.59±0.92 10^6/mm^3
same,Granulocytes,[2],51.12±5.16%
same,"Hematocrit, HCT",[2],49.2±4.43%
same,Hemoglobin Hgb,[2],16.17 ± 1.44 g/dL
same,Lymphocytes,[2],51.85±3.3%
same,"Mean corpuscular haemoglobin concentration, MCHC",[2],32.87 ± 0.42 g/dL
same,"Mean corpuscular haemoglobin, MCH",[2],16.85 ± 0.3 pg
same,"Mean corpuscular volume, MCV",[2],50±1.82 µm^3
same,Monocytes,[2],2.8±0.25%
same,"White blood cells, WBC",[2],3.86±0.34 10^3/mm^3
same,"Alanine transaminase, ALT",[1],43.2±7.56
same,"Alkaline phosphatase, ALP",[1],138.33±5.5
same,"Aspartate aminotransferase, AST",[1],140±7.2
same,Creatinine,[1],40.15±3.6
same,Total bilirubin,[1],1.95±0.08
same,Urea,[1],10.14±1.52
same,"Alkaline phosphatase, ALP","IP, RN7-IN10, RN7-IN8 20 mg/kg",114.97±24.9
same,"Aspartate aminotransferase, AST","IP, RN7-IN10, RN7-IN8 20 mg/kg",176±19.31
same,Creatinine,"IP, RN7-IN10, RN7-IN8 20 mg/kg",41.47±4.2
same,Total bilirubin,"IP, RN7-IN10, RN7-IN8 20 mg/kg",2.1±0.1
same,Urea,"IP, RN7-IN10, RN7-IN8 20 mg/kg",8.97±1.17
same,"Alanine transaminase, ALT",[2],43.32±10.3
same,"Alkaline phosphatase, ALP",[2],106.56±20.1
same,"Aspartate aminotransferase, AST",[2],158.25±18.9
same,Creatinine,[2],34.89±0.25
same,Total bilirubin,[2],2.03±0.14
same,Urea,[2],9.07±2.02
